{"source": "patent US6660692B1", "about": "“Herbicidal compositions comprising picolinafen” (Aventis CropScience S.A., priority 1999, dated 2003)", "assay_type_in_all_cases": "in vivo", "details_in_all_cases": "12 days after treatment", "key": {"Galium aparine (GALAP) [1]": {"test_system": "Galium aparine (GALAP)", "test": "Example 5 glasshouse trial post-emergence in wheat, (I) and isoxaflutole", "description": "(§1) A glasshouse trial was carried out post-emergence in wheat using a tank mixture comprising a phenoxypicolinamide derivative of formula I (at 1, 4 and 16 g/ha) and isoxaflutole (at 8, 16 and 32 g/ha) which was sprayed on the following weed species:\n(§2) Alopecurus myosuroides (ALOMY) and Galium aparine (GALAP)."}, "[2]": {"test_system": "Alopecurus myosuroides (ALOMY)", "test": "Example 5 glasshouse trial post-emergence in wheat, (I) and isoxaflutole", "description": "as §1, §2"}, "Galium aparine (GALAP) [3]": {"test_system": "Galium aparine (GALAP)", "test": "Example 3 glasshouse trial post-emergence in wheat, (I) and isoproturon", "description": "(§3) A glasshouse trial was carried out post-emergence in wheat using a tank mixture comprising a phenoxypicolinamide derivative of formula I (at 1, 4 and 16 g/ha) and isoproturon (at 125, 250 and 500 g/ha) which was sprayed on the following weed species:\n(§4) Alopecurus myosuroides (ALOMY), Setaria viridis (SETVI), Avena fatua (AVEFA), Echinochloa crus-galli (ECHCG) and Galium aparine (GALAP)."}, "Setaria viridis (SETVI) [4]": {"test_system": "Setaria viridis (SETVI)", "test": "Example 3 glasshouse trial post-emergence in wheat, (I) and isoproturon", "description": "as §3, §4"}, "[5]": {"test_system": "Echinochloa crus-galli (ECHCG)", "test": "Example 3 glasshouse trial post-emergence in wheat, (I) and isoproturon", "description": "as §3, §4"}, "Avena fatua (AVEFA) [6]": {"test_system": "Avena fatua (AVEFA)", "test": "Example 3 glasshouse trial post-emergence in wheat, (I) and isoproturon", "description": "as §3, §4"}, "[7]": {"test_system": "Alopecurus myosuroides (ALOMY)", "test": "Example 3 glasshouse trial post-emergence in wheat, (I) and isoproturon", "description": "as §3, §4"}, "Galium aparine (GALAP) [8]": {"test_system": "Galium aparine (GALAP)", "test": "Example 4 glasshouse trial post-emergence in wheat, (I) and bromoxynil", "description": "(§5) A glasshouse trial was carried out post-emergence in wheat using a tank mixture comprising a phenoxypicolinamide derivative of formula I (at 1, 4 and 16 g/ha) and bromoxynil (at 12.5, 50 and 200 g/ha) which was sprayed on the following weed species:\n(§6) Setaria viridis (SETVI), Avena fatua (AVEFA), Echinochloa crus-galli (ECHCG) and Galium aparine (GALAP)."}, "Setaria viridis (SETVI) [9]": {"test_system": "Setaria viridis (SETVI)", "test": "Example 4 glasshouse trial post-emergence in wheat, (I) and bromoxynil", "description": "as §5, §6"}, "[10]": {"test_system": "Echinochloa crus-galli (ECHCG)", "test": "Example 4 glasshouse trial post-emergence in wheat, (I) and bromoxynil", "description": "as §5, §6"}, "Avena fatua (AVEFA) [11]": {"test_system": "Avena fatua (AVEFA)", "test": "Example 4 glasshouse trial post-emergence in wheat, (I) and bromoxynil", "description": "as §5, §6"}}, "data": [{"smiles": "CS(=O)(=O)c1cc(C(F)(F)F)ccc1C(=O)c1cnoc1C1CC1", "note": "[Compound (IV), 5-cyclopropyl-4-(2-methylsulphonyl-4-trifluoromethyl)-benzoylisoxazole]", "values": [{"measurement": "% Weed Control GALAP", "setting": "Galium aparine (GALAP) [1]; 8 g ai/ha", "value": 60, "unit": "%"}, {"measurement": "% Weed Control GALAP", "setting": "Galium aparine (GALAP) [1]; 16 g ai/ha", "value": 60, "unit": "%"}, {"measurement": "% Weed Control GALAP", "setting": "Galium aparine (GALAP) [1]; 32 g ai/ha", "value": 80, "unit": "%"}, {"measurement": "% Weed Control ALOMY", "setting": "[2]; 8 g ai/ha", "value": 10, "unit": "%"}, {"measurement": "% Weed Control ALOMY", "setting": "[2]; 16 g ai/ha", "value": 20, "unit": "%"}, {"measurement": "% Weed Control ALOMY", "setting": "[2]; 32 g ai/ha", "value": 40, "unit": "%"}]}, {"smiles": "CC(C)c1ccc(NC(=O)N(C)C)cc1", "note": "[Compound (II), 3-(4-isopropylphenyl)-1,1-dimethylurea]", "values": [{"measurement": "% Weed Control GALAP", "setting": "Galium aparine (GALAP) [3]; 125 g ai/ha", "value": 0, "unit": "%"}, {"measurement": "% Weed Control GALAP", "setting": "Galium aparine (GALAP) [3]; 250 g ai/ha", "value": 0, "unit": "%"}, {"measurement": "% Weed Control GALAP", "setting": "Galium aparine (GALAP) [3]; 500 g ai/ha", "value": 0, "unit": "%"}, {"measurement": "% Weed Control SETVI", "setting": "Setaria viridis (SETVI) [4]; 125 g ai/ha", "value": 50, "unit": "%"}, {"measurement": "% Weed Control SETVI", "setting": "Setaria viridis (SETVI) [4]; 250 g ai/ha", "value": 70, "unit": "%"}, {"measurement": "% Weed Control SETVI", "setting": "Setaria viridis (SETVI) [4]; 500 g ai/ha", "value": 100, "unit": "%"}, {"measurement": "% Weed Control ECHCG", "setting": "[5]; 125 g ai/ha", "value": 10, "unit": "%"}, {"measurement": "% Weed Control ECHCG", "setting": "[5]; 250 g ai/ha", "value": 70, "unit": "%"}, {"measurement": "% Weed Control ECHCG", "setting": "[5]; 500 g ai/ha", "value": 70, "unit": "%"}, {"measurement": "% Weed Control AVEFA", "setting": "Avena fatua (AVEFA) [6]; 125 g ai/ha", "value": 0, "unit": "%"}, {"measurement": "% Weed Control AVEFA", "setting": "Avena fatua (AVEFA) [6]; 250 g ai/ha", "value": 30, "unit": "%"}, {"measurement": "% Weed Control AVEFA", "setting": "Avena fatua (AVEFA) [6]; 500 g ai/ha", "value": 30, "unit": "%"}, {"measurement": "% Weed Control ALOMY", "setting": "[7]; 125 g ai/ha", "value": 0, "unit": "%"}, {"measurement": "% Weed Control ALOMY", "setting": "[7]; 250 g ai/ha", "value": 0, "unit": "%"}, {"measurement": "% Weed Control ALOMY", "setting": "[7]; 500 g ai/ha", "value": 20, "unit": "%"}]}, {"smiles": "O=C(Nc1ccc(F)cc1)c1cccc(Oc2cccc(C(F)(F)F)c2)n1", "note": "[(I), picolinafen]", "values": [{"measurement": "% Weed Control GALAP", "setting": "Galium aparine (GALAP) [3]; 1 g ai/ha", "value": 10, "unit": "%"}, {"measurement": "% Weed Control GALAP", "setting": "Galium aparine (GALAP) [3]; 4 g ai/ha", "value": 40, "unit": "%"}, {"measurement": "% Weed Control GALAP", "setting": "Galium aparine (GALAP) [3]; 16 g ai/ha", "value": 90, "unit": "%"}, {"measurement": "% Weed Control SETVI", "setting": "Setaria viridis (SETVI) [4]; 1 g ai/ha", "value": 10, "unit": "%"}, {"measurement": "% Weed Control SETVI", "setting": "Setaria viridis (SETVI) [4]; 4 g ai/ha", "value": 30, "unit": "%"}, {"measurement": "% Weed Control SETVI", "setting": "Setaria viridis (SETVI) [4]; 16 g ai/ha", "value": 70, "unit": "%"}, {"measurement": "% Weed Control ECHCG", "setting": "[5]; 1 g ai/ha", "value": 10, "unit": "%"}, {"measurement": "% Weed Control ECHCG", "setting": "[5]; 4 g ai/ha", "value": 10, "unit": "%"}, {"measurement": "% Weed Control ECHCG", "setting": "[5]; 16 g ai/ha", "value": 40, "unit": "%"}, {"measurement": "% Weed Control AVEFA", "setting": "Avena fatua (AVEFA) [6]; 1 g ai/ha", "value": 10, "unit": "%"}, {"measurement": "% Weed Control AVEFA", "setting": "Avena fatua (AVEFA) [6]; 4 g ai/ha", "value": 20, "unit": "%"}, {"measurement": "% Weed Control AVEFA", "setting": "Avena fatua (AVEFA) [6]; 16 g ai/ha", "value": 40, "unit": "%"}, {"measurement": "% Weed Control ALOMY", "setting": "[7]; 1 g ai/ha", "value": 10, "unit": "%"}, {"measurement": "% Weed Control ALOMY", "setting": "[7]; 4 g ai/ha", "value": 10, "unit": "%"}, {"measurement": "% Weed Control ALOMY", "setting": "[7]; 16 g ai/ha", "value": 30, "unit": "%"}, {"measurement": "% Weed Control GALAP", "setting": "Galium aparine (GALAP) [8]; 1 g ai/ha", "value": 10, "unit": "%"}, {"measurement": "% Weed Control GALAP", "setting": "Galium aparine (GALAP) [8]; 4 g ai/ha", "value": 40, "unit": "%"}, {"measurement": "% Weed Control GALAP", "setting": "Galium aparine (GALAP) [8]; 16 g ai/ha", "value": 90, "unit": "%"}, {"measurement": "% Weed Control SETVI", "setting": "Setaria viridis (SETVI) [9]; 1 g ai/ha", "value": 10, "unit": "%"}, {"measurement": "% Weed Control SETVI", "setting": "Setaria viridis (SETVI) [9]; 4 g ai/ha", "value": 30, "unit": "%"}, {"measurement": "% Weed Control SETVI", "setting": "Setaria viridis (SETVI) [9]; 16 g ai/ha", "value": 70, "unit": "%"}, {"measurement": "% Weed Control ECHCG", "setting": "[10]; 1 g ai/ha", "value": 10, "unit": "%"}, {"measurement": "% Weed Control ECHCG", "setting": "[10]; 4 g ai/ha", "value": 10, "unit": "%"}, {"measurement": "% Weed Control ECHCG", "setting": "[10]; 16 g ai/ha", "value": 40, "unit": "%"}, {"measurement": "% Weed Control AVEFA", "setting": "Avena fatua (AVEFA) [11]; 1 g ai/ha", "value": 10, "unit": "%"}, {"measurement": "% Weed Control AVEFA", "setting": "Avena fatua (AVEFA) [11]; 4 g ai/ha", "value": 20, "unit": "%"}, {"measurement": "% Weed Control AVEFA", "setting": "Avena fatua (AVEFA) [11]; 16 g ai/ha", "value": 40, "unit": "%"}, {"measurement": "% Weed Control GALAP", "setting": "Galium aparine (GALAP) [1]; 1 g ai/ha", "value": 10, "unit": "%"}, {"measurement": "% Weed Control GALAP", "setting": "Galium aparine (GALAP) [1]; 4 g ai/ha", "value": 40, "unit": "%"}, {"measurement": "% Weed Control GALAP", "setting": "Galium aparine (GALAP) [1]; 16 g ai/ha", "value": 90, "unit": "%"}, {"measurement": "% Weed Control ALOMY", "setting": "[2]; 1 g ai/ha", "value": 10, "unit": "%"}, {"measurement": "% Weed Control ALOMY", "setting": "[2]; 4 g ai/ha", "value": 10, "unit": "%"}, {"measurement": "% Weed Control ALOMY", "setting": "[2]; 16 g ai/ha", "value": 30, "unit": "%"}]}, {"smiles": "N#Cc1cc(Br)c(O)c(Br)c1", "note": "[Compound (III), 3,5-dibromo-4-hydroxybenzonitrile]", "values": [{"measurement": "% Weed Control GALAP", "setting": "Galium aparine (GALAP) [8]; 12.5 g ai/ha", "value": 0, "unit": "%"}, {"measurement": "% Weed Control GALAP", "setting": "Galium aparine (GALAP) [8]; 50 g ai/ha", "value": 80, "unit": "%"}, {"measurement": "% Weed Control GALAP", "setting": "Galium aparine (GALAP) [8]; 200 g ai/ha", "value": 100, "unit": "%"}, {"measurement": "% Weed Control SETVI", "setting": "Setaria viridis (SETVI) [9]; 12.5 g ai/ha", "value": 0, "unit": "%"}, {"measurement": "% Weed Control SETVI", "setting": "Setaria viridis (SETVI) [9]; 50 g ai/ha", "value": 20, "unit": "%"}, {"measurement": "% Weed Control SETVI", "setting": "Setaria viridis (SETVI) [9]; 200 g ai/ha", "value": 20, "unit": "%"}, {"measurement": "% Weed Control ECHCG", "setting": "[10]; 12.5 g ai/ha", "value": 0, "unit": "%"}, {"measurement": "% Weed Control ECHCG", "setting": "[10]; 50 g ai/ha", "value": 0, "unit": "%"}, {"measurement": "% Weed Control ECHCG", "setting": "[10]; 200 g ai/ha", "value": 20, "unit": "%"}, {"measurement": "% Weed Control AVEFA", "setting": "Avena fatua (AVEFA) [11]; 12.5 g ai/ha", "value": 0, "unit": "%"}, {"measurement": "% Weed Control AVEFA", "setting": "Avena fatua (AVEFA) [11]; 50 g ai/ha", "value": 0, "unit": "%"}, {"measurement": "% Weed Control AVEFA", "setting": "Avena fatua (AVEFA) [11]; 200 g ai/ha", "value": 10, "unit": "%"}]}]}
